Experimental data as given in US4329426A, “Process for preparation of antibiotics and biologically pure culture for use therein” (Kowa Company, Ltd., priority 1978, dated 1982).

Columns and labels:
[1] = Acute toxicity in mice; format: in vivo; settings: mouse, in vivo
[2] = Solubility; format: physicochemical
[3] = tested on: mice; assay: Acute toxicity in mice; format: in vivo

Compound	LD50 ([1]; iv.) [mg/kg]	LD50 ([1]; sc.) [mg/kg]	Solubility in acetone [2]	Solubility in chloroform, ethyl acetate, diethyl ether, hexane and petroleum ether [2]	Solubility in ethanol [2]	Solubility in methanol [2]	Solubility in water [2]	LD50 ([3]; iv.) [mg/kg]	LD50 ([3]; sc.) [mg/kg]
CNCC1CCC(N)C(OC2C(N)CC(OC)C(NC)C2O)O1 (stereo not drawn) [KA-7038 III]	> 300	> 600	slightly soluble	Insoluble	little soluble	Easily soluble	Very readily soluble		
CNC1C(O)CC(N)C(OC2OC(CN)CCC2N)C1O (stereo not drawn) [KA-7038 II]	> 300	> 600	slightly soluble	Insoluble	little soluble	Easily soluble	Very readily soluble		
CNC1C(O)C(OC2OC(CN)CCC2N)C(N)C(O)C1OC (stereo not drawn) [KA-7038 IV]	> 300	> 600	slightly soluble	Insoluble	little soluble	Easily soluble	Very readily soluble		
CNCC1CCC(N)C(OC2C(N)CC(OC)C(N(C)C(=O)CN)C2O)O1 (stereo not drawn) [KA-7038 I]	> 100	> 400	sightly soluble	Insoluble	little soluble	Easily soluble	Very readily soluble		
CNCC1CCC(N)C(OC2C(N)CC(OC)C(NC)C2O)O1 (stereo not drawn) [KA-7038 VI]			slightly soluble	Insoluble	little soluble	Easily soluble	Very readily soluble	> 300	> 600
CNC1C(OC)CC(N)C(OC2OC(CN)CCC2N)C1O (stereo not drawn) [KA-7038 V]	> 300	> 600	slightly soluble	Insoluble	little soluble	Easily soluble	Very readily soluble		
